Test results reported in ChEMBL document CHEMBL1138414, “Discovery of galectin ligands in fully randomized combinatorial one-bead-one-compound (glyco)peptide libraries” (2007).
Calls of active or inactive are those of the source. The rule behind the calls is not given here. Non-standard residues stand in square brackets, D forms with d. Residues, ends and D or L forms follow the SMILES beside them. *: point of attachment. X1 = OC[C@H]1O[C@@H](O[C@H]2[C@H](O)[C@@H](O)[C@@H](*)O[C@@H]2CO)[C@H](O)[C@@H](O)[C@H]1O; βGal = OC[C@H]1O[C@@H](*)[C@H](O)[C@@H](O)[C@H]1O; X2 = OC[C@H]1O[C@@H](N*)[C@H](O)[C@@H](O)[C@H]1O; Cha = N[C@@H](CC1CCCCC1)C(=O)O

Key:
[1] = target: Galectin-3 (Homo sapiens) (UniProt P17931); experiment: Inhibition of carbohydrate-dependent human galectin3 binding at 10 mM by solid phase assay
Sequence of Galectin-3 (Homo sapiens) (P17931 whole entry): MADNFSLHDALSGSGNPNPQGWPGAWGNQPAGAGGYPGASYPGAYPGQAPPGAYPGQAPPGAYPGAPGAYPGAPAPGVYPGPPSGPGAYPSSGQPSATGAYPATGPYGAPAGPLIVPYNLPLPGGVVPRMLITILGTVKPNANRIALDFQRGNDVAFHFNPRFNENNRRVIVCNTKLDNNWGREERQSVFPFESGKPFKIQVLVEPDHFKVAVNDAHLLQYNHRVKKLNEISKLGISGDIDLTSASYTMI

[2] = target: Galectin-1 (Homo sapiens) (UniProt P09382); experiment: Inhibition of carbohydrate-dependent human galectin1 binding at 10 mM by solid phase assay
Sequence of Galectin-1 (Homo sapiens) (P09382 whole entry): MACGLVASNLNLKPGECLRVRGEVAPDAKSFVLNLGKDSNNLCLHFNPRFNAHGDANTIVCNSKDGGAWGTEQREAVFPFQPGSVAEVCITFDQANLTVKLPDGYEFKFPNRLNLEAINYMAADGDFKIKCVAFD

SW480 [3] = experiment: Inhibition of carbohydrate-dependent galectin3 binding to human SW480 cell surface at 1mM; assay type: functional; parameters: scale not given: the % may be the effect or the level left
SW480 [4] = experiment: Inhibition of carbohydrate-dependent galectin3 binding to human SW480 cell surface at 5 mM; assay type: functional, cell-based; parameters: scale not given: the % may be the effect or the level left
SW480 [5] = experiment: Inhibition of carbohydrate-dependent galectin3 binding to human SW480 cell surface at 2mM; assay type: functional, cell-based; parameters: scale not given: the % may be the effect or the level left
SW480 [6] = experiment: Inhibition of carbohydrate-dependent galectin3 binding to human SW480 cell surface at 0.5mM; assay type: functional, cell-based; parameters: scale not given: the % may be the effect or the level left
CAPAN-1 = experiment: Inhibition of carbohydrate-dependent galectin1 binding to human Capan1 cell surface at 2mM; assay type: functional; parameters: scale not given: the % may be the effect or the level left

inhibition [1] | inhibition [2] | Molecule | also measured
 | inactive | CC[C@H](C)[C@H](NC(=O)[C@H](Cc1ccccc1)NC(=O)[C@H](CCCNC(=N)N)NC(=O)[C@H](CCCNC(=N)N)NC(=O)[C@H](CC1CCCCC1)NC(=O)[C@@H](N)[C@@H](C)O[C@H]1O[C@H](CO)[C@@H](O[C@@H]2O[C@H](CO)[C@H](O)[C@H](O)[C@H]2O)[C@H](O)[C@H]1O)C(=O)O (H-T(X1)[Cha]RRFI-OH) | Activity (SW480 [3]): 34%
 | 22% | C[C@H](NC(=O)[C@@H](N)CO)C(=O)N[C@@H](CO)C(=O)N[C@@H](CO)C(=O)N[C@H](C(=O)N[C@@H](CCCNC(=N)N)C(=O)O)[C@@H](C)O[C@H]1O[C@H](CO)[C@@H](O[C@@H]2O[C@H](CO)[C@H](O)[C@H](O)[C@H]2O)[C@H](O)[C@H]1O (H-SASST(X1)R-OH) | 
44% | 54% | LACTOSE, ANHYDROUS | Activity (SW480 [3]): 44%; Activity (SW480 [4]): 10%; Activity (SW480 [5]): 24%; Activity (SW480 [6]): 43%
inactive |  | CC(C)[C@H](NC(=O)[C@H](Cc1cnc[nH]1)NC(=O)[C@@H](N)Cc1cnc[nH]1)C(=O)N[C@@H](Cc1ccc(O)cc1)C(=O)N[C@@H](Cc1ccc(O)cc1)C(=O)N[C@@H](Cc1cnc[nH]1)C(=O)O (H-HHVYYH-OH) | 
 | inactive | CC[C@H](C)[C@H](NC(=O)[C@@H](NC(=O)[C@@H]1CCCN1)[C@@H](C)O)C(=O)N[C@@H](Cc1ccccc1)C(=O)N[C@@H](Cc1ccccc1)C(=O)N[C@@H](Cc1ccccc1)C(=O)O (H-PTIFFF-OH) | 
 | inactive | CC[C@H](C)[C@H](NC(=O)[C@@H](NC(=O)[C@@H](N)CC1CCCCC1)C(C)C)C(=O)N[C@@H](CC(=O)N[C@@H]1O[C@H](CO)[C@H](O)[C@H](O)[C@H]1O)C(=O)N[C@@H](Cc1ccc(O)cc1)C(=O)N[C@@H](CCC(N)=O)C(=O)O (H-[Cha]VID(X2)YQ-OH) | 
 | 3% | CC[C@H](C)[C@H](NC(=O)[C@@H](NC(=O)[C@H](CCCNC(=N)N)NC(=O)[C@@H]1CCCN1C(=O)[C@H](CCCNC(=N)N)NC(=O)[C@@H](N)Cc1ccccc1)[C@@H](C)O[C@H]1O[C@H](CO)[C@@H](O[C@@H]2O[C@H](CO)[C@H](O)[C@H](O)[C@H]2O)[C@H](O)[C@H]1O)C(=O)O (H-FRPRT(X1)I-OH) | Activity (CAPAN-1): 12%
 | 14% | CC[C@H](C)[C@H](NC(=O)[C@H](Cc1ccccc1)NC(=O)[C@@H]1CCCN1)C(=O)N[C@@H](CC1CCCCC1)C(=O)N[C@@H](Cc1ccccc1)C(=O)N[C@@H](CCC(N)=O)C(=O)O | 
 | inactive | CC[C@H](C)[C@H](NC(=O)[C@@H](NC(=O)[C@H](CCCNC(=N)N)NC(=O)[C@H](CCCNC(=N)N)NC(=O)[C@H](Cc1ccc(O)cc1)NC(=O)[C@H](C)N)[C@@H](C)O[C@H]1O[C@H](CO)[C@@H](O[C@@H]2O[C@H](CO)[C@H](O)[C@H](O)[C@H]2O)[C@H](O)[C@H]1O)C(=O)O (H-AYRRT(X1)I-OH) | 
inactive |  | CC(C)[C@H](NC(=O)[C@@H](N)CCCNC(=N)N)C(=O)N[C@@H](Cc1cnc[nH]1)C(=O)N[C@@H](Cc1ccc(O)cc1)C(=O)N[C@H](C(=O)N[C@@H](CCCNC(=N)N)C(=O)O)[C@@H](C)O[C@H]1O[C@H](CO)[C@@H](O[C@@H]2O[C@H](CO)[C@H](O)[C@H](O)[C@H]2O)[C@H](O)[C@H]1O (H-RVHYT(X1)R-OH) | Activity (SW480 [3]): 35%

More lines, now with the values behind:

Molecule | inhibition [1] | inhibition [2] | also measured
CSCC[C@H](N)C(=O)N[C@@H](CCCNC(=N)N)C(=O)N[C@H](C(=O)N[C@@H](CCCNC(=N)N)C(=O)N[C@H](C(=O)N[C@@H](CCCNC(=N)N)C(=O)O)[C@@H](C)O[C@H]1O[C@H](CO)[C@@H](O[C@@H]2O[C@H](CO)[C@H](O)[C@H](O)[C@H]2O)[C@H](O)[C@H]1O)[C@@H](C)O[C@H]1O[C@H](CO)[C@@H](O[C@@H]2O[C@H](CO)[C@H](O)[C@H](O)[C@H]2O)[C@H](O)[C@H]1O | inactive |  | 
OC[C@H]1O[C@@H](O)[C@H](O)[C@@H](O)[C@H]1O | inactive | 17% | 
C[C@H](NC(=O)[C@@H](N)[C@@H](C)O[C@H]1O[C@H](CO)[C@@H](O[C@@H]2O[C@H](CO)[C@H](O)[C@H](O)[C@H]2O)[C@H](O)[C@H]1O)C(=O)N[C@@H](CC(N)=O)C(=O)N[C@@H](Cc1ccc(O)cc1)C(=O)N[C@H](C(=O)N[C@@H](CCCNC(=N)N)C(=O)O)[C@@H](C)O[C@H]1O[C@H](CO)[C@@H](O[C@@H]2O[C@H](CO)[C@H](O)[C@H](O)[C@H]2O)[C@H](O)[C@H]1O | 15% |  | 
O=C(O)[C@H](Cc1ccccc1)NC(=O)[C@H](Cc1ccccc1)NC(=O)[C@H](Cc1ccccc1)NC(=O)[C@H](Cc1ccccc1)NC(=O)[C@H](Cc1ccccc1)NC(=O)[C@@H]1CCCN1 (H-PFFFFF-OH) | 76% |  | 
C[C@@H](O)[C@H](NC(=O)[C@H](Cc1ccc(O)cc1)NC(=O)[C@H](CC1CCCCC1)NC(=O)[C@H](Cc1cnc[nH]1)NC(=O)[C@H](CC1CCCCC1)NC(=O)[C@@H](N)Cc1ccc(O)cc1)C(=O)O |  | 9% | 
CC[C@H](C)[C@H](N)C(=O)N[C@@H](Cc1ccccc1)C(=O)N[C@@H](CCCNC(=N)N)C(=O)N[C@@H](CC1CCCCC1)C(=O)N[C@@H](CCCNC(=N)N)C(=O)N[C@@H](Cc1ccc(O)cc1)C(=O)O (H-IFR[Cha]RY-OH) |  | 70% | 
CSCC[C@H](NC(=O)[C@@H]1CCCN1C(=O)[C@H](CCCNC(=N)N)NC(=O)[C@H](CC1CCCCC1)NC(=O)[C@@H](N)CC1CCCCC1)C(=O)N[C@@H](CCCNC(=N)N)C(=O)O (H-[Cha][Cha]RPMR-OH) | 28% |  | 
CC[C@H](C)[C@H](NC(=O)[C@H](Cc1ccccc1)NC(=O)[C@@H](NC(=O)CN)C(C)C)C(=O)N[C@@H](CC1CCCCC1)C(=O)N[C@@H](C)C(=O)O (H-GVFI[Cha]A-OH) |  | inactive | 
CC[C@H](C)[C@H](NC(=O)[C@H](Cc1ccccc1)NC(=O)[C@H](Cc1ccccc1)NC(=O)[C@@H]1CCCN1)C(=O)N[C@@H](CO)C(=O)N[C@@H](CCCNC(=N)N)C(=O)O (H-PFFISR-OH) |  | 9% | Activity (SW480 [3]): 63%
CC[C@H](C)[C@H](NC(=O)[C@H](CCCNC(=N)N)NC(=O)[C@@H](NC(=O)[C@H](Cc1ccccc1)NC(=O)[C@@H](NC(=O)[C@@H](N)CC(N)=O)[C@@H](C)O[C@H]1O[C@H](CO)[C@@H](O[C@@H]2O[C@H](CO)[C@H](O)[C@H](O)[C@H]2O)[C@H](O)[C@H]1O)C(C)C)C(=O)O (H-NT(X1)FVRI-OH) | 44% |  | Activity (SW480 [3]): 40%
CC[C@H](C)[C@H](NC(=O)[C@@H](N)[C@@H](C)O[C@@H]1O[C@H](CO)[C@H](O)[C@H](O)[C@H]1O)C(=O)N[C@H](C(=O)N[C@@H](CCC(N)=O)C(=O)N[C@@H](CC1CCCCC1)C(=O)N[C@@H](Cc1ccc(O)cc1)C(=O)O)[C@@H](C)CC (H-T(βGal)IIQ[Cha]Y-OH) |  | inactive | Activity (SW480 [3]): 77%
CC(C)[C@H](NC(=O)[C@@H](NC(=O)[C@@H]1CCCN1)[C@@H](C)O[C@H]1O[C@H](CO)[C@@H](O[C@@H]2O[C@H](CO)[C@H](O)[C@H](O)[C@H]2O)[C@H](O)[C@H]1O)C(=O)N[C@@H](C)C(=O)N1CCC[C@H]1C(=O)N[C@@H](CCCNC(=N)N)C(=O)O (H-PT(X1)VAPR-OH) | inactive |  | 
CSCC[C@H](N)C(=O)N[C@@H](Cc1ccccc1)C(=O)N[C@H](C(=O)N[C@@H](CC1CCCCC1)C(=O)N[C@@H](CC1CCCCC1)C(=O)N[C@@H](CCCNC(=N)N)C(=O)O)C(C)C (H-MFV[Cha][Cha]R-OH) |  | 22% | 
CC[C@H](C)[C@H](NC(=O)[C@@H]1CCCN1)C(=O)N[C@@H](Cc1ccccc1)C(=O)N[C@H](C(=O)N[C@@H](CCCNC(=N)N)C(=O)N[C@@H](CCCNC(=N)N)C(=O)O)[C@@H](C)O[C@H]1O[C@H](CO)[C@@H](O[C@@H]2O[C@H](CO)[C@H](O)[C@H](O)[C@H]2O)[C@H](O)[C@H]1O (H-PIFT(X1)RR-OH) |  | inactive | 
CSCC[C@H](NC(=O)[C@@H](N)[C@@H](C)O[C@H]1O[C@H](CO)[C@@H](O[C@@H]2O[C@H](CO)[C@H](O)[C@H](O)[C@H]2O)[C@H](O)[C@H]1O)C(=O)N[C@@H](CCCNC(=N)N)C(=O)N[C@@H](C)C(=O)N[C@H](C(=O)N[C@@H](CC1CCCCC1)C(=O)O)[C@@H](C)O[C@H]1O[C@H](CO)[C@@H](O[C@@H]2O[C@H](CO)[C@H](O)[C@H](O)[C@H]2O)[C@H](O)[C@H]1O |  | 38% | Activity (CAPAN-1): 22%
CC(C)[C@H](NC(=O)[C@H](CC1CCCCC1)NC(=O)[C@H](CC(N)=O)NC(=O)[C@H](CC1CCCCC1)NC(=O)[C@@H]1CCCN1)C(=O)N[C@@H](Cc1ccc(O)cc1)C(=O)O (H-P[Cha]N[Cha]VY-OH) |  | 67% | 
